Experimental data: article PMC9320910, “Inhibition of Microtubule Affinity Regulating Kinase 4 by Metformin: Exploring the Neuroprotective Potential of Antidiabetic Drug through Spectroscopic and Computational Approaches” (Molecules, 2022)

Molecular target: T1, Microtubule affinity regulating kinase 4 (MARK4) (Homo sapiens, UniProt Q96L34)
T1 sequence (Q96L34 1-752): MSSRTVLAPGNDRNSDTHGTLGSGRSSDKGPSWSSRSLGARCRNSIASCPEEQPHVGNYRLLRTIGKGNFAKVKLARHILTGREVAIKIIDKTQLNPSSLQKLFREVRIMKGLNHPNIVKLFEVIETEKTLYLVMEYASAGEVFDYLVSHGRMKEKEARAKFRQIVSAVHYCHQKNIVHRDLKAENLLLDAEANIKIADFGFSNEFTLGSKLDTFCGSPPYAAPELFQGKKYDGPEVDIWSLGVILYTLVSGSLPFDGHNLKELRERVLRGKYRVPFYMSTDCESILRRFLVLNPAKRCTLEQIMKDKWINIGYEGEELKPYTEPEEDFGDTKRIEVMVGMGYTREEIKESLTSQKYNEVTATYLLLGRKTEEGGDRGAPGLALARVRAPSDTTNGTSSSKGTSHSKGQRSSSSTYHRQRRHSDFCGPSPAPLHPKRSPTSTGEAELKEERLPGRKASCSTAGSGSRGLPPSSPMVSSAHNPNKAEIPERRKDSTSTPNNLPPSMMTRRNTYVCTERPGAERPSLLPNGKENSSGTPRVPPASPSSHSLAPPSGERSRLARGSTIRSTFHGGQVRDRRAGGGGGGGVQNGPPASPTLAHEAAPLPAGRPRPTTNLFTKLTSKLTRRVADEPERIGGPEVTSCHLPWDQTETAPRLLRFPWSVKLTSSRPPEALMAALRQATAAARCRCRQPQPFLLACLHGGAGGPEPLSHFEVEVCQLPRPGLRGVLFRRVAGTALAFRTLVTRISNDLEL
Experiment: intrinsic fluorescence quenching (modified Stern-Volmer); supported by malachite green ATPase assay of MARK4 (IC50 =[…])
Type: binding

Kd: 1670 nM
SMILES: CN(C)C(=N)N=C(N)N [Mtf, N,N-dimethylbiguanide]
